Results: patent publication US5587479A, “Basic derivatives of glutamic acid and aspartic acid as gastrin or cholecystokinin antagonists” (priority 1992, dated 1996)
Values after ≈ are worked out from the molar mass of the structure shown. Like-named read-outs stand apart in the source and are kept apart here. One block for each compound: values may come before it.

Legend:
mouse = assay: Anxiolytic activity in the mouse, Black and White Box test; format: in vivo; conditions: for TOTAL MOV.: five minutes
Experimental: In order to confirm the hypothesis that the potent activity of some of the compounds of the invention against central CCK-B may be correlated with a possible anxiolytic activity, this potential activity was evaluated in the mouse with the use of the "Black and White Box test". This experimental model, which was carried out according to Costall et al. [Pharm. Biochem. Behav. 32 (1989), 777-785] used a box with dimensions of 45×21×21 (h) cm. divided into two compartments which communicated with each other by means of a 13×5 cm hole. The smaller compartment (1/3 of the total area) had black walls, whereas the larger had transparent walls and was illuminated by a lamp which was placed 20 cm above the box and supplied light at 20 W. Under the floor was an activity meter which registered the movements performed by the animal in the individual compartments. The experiment was started by placing the animal in the centre of the illuminated box; as well at its movements, the time which the animal spent in the dark and in the light and the number of times it moved between the 2 compartments were recorded for five minutes. In general, a control animal tended preferably to stay in the dark compartment where it felt better protected from an unusual enviromental situation which put it in a state of anxiety. In this experimental model ( see the reference cited above), a compound having anxiolytic activity decreased the % of movements into the dark in comparison with the total movements, increased the movements between the two light-dark compartments, and increased the % of the total time time spent in the light. The results obtained are given in Table 5 below in which the activities obtained with the compound 1 (the rectus series ) and its enantiomer 2 (sinister) tested in comparison with diazepam and the CCK-B antagonist L365-260.

[1] = target: T1, cholecystokinin receptors of the pancreatic cells of the rat (CCK-A) (Rattus norvegicus, UniProt P30551); assay: Inhibition of the binding of [125-I]-[Bolton-Hunter]-CCK-8 to rat pancreatic cells (anti-CCK-A)
T1 construct: The pancreatic cells of the rat were prepared as described by Makovec et al; from tissue; host or cells: rat pancreatic cells
T1 sequence (P30551 1-444): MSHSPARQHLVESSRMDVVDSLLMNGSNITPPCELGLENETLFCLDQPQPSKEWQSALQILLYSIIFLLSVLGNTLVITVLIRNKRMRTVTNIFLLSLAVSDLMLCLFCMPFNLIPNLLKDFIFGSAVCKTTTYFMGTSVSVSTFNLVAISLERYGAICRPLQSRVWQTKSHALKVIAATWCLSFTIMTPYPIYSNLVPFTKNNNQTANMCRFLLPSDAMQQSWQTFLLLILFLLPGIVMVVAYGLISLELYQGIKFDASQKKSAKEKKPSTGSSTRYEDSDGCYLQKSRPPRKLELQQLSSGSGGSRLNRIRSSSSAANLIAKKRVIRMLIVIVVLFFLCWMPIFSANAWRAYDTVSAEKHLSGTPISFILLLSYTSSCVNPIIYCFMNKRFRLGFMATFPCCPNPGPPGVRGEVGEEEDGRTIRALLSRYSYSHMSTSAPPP
Experimental: The pancreatic cells of the rat were prepared as described by Makovec et al. (reference cited) so as to produce about 5×10^6 cells/mi. The cells were then incubated together with the radioactive tracer and the compounds under test for 30 minutes at 37° C.
After the supernatant liquid had been discarded, the radioactivity associated with the pellet was determined with a gamma counter (80% efficiency).

[2] = target: T2, central CCK-B receptors (guinea pig cortical membrane) (Cavia porcellus, UniProt H0VZC5); assay: Inhibition of binding of (3-H)[N-methyl-N-leucine]CCK-8 to guinea pig cortical membranes (anti-CCK-B); conditions: for IC50: IC50, inhibition of binding of (3-H)[N-methyl-N-leucine]CCK-8 to the guinea pig cortical membrane, 150 minutes at 25° C.
T2 construct: Cerebral cortices of white male guinea pigs were therefore used; from tissue; host or cells: guinea pig cerebral cortex membranes
T2 sequence (H0VZC5 1-426): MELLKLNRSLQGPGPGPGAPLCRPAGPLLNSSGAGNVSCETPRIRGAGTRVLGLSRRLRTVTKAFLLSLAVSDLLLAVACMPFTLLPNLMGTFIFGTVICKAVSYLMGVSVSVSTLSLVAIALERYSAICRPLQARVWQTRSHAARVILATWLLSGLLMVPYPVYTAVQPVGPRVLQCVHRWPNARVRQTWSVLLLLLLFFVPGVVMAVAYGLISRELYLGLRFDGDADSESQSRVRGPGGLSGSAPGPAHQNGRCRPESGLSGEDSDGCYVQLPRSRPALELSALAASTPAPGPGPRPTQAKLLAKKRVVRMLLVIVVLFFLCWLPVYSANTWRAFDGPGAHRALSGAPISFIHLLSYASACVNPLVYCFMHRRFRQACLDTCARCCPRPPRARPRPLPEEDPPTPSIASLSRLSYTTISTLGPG
Experimental: Cerebral cortices of white male guinea pigs were therefore used, according to the method mentioned above, so as to obtain a membrane content/ml corresponding to about 300 mcg of proteins/mi. The membranes were incubated together with the radioactive tracer and the compounds under test for 150 minutes at 25° C. After the supernatant liquid had been discarded, the radioactivity associated with the pellet was determined with a liquid scintillator.

[3] = system: acid secretion induced by pentagastrin; assay: Activity against gastric secretion stimulated with pentagastrin in the anaesthetized rat; format: in vivo
Experimental: The investigation of the activity against gastric secretion performed by the compounds of the invention by means of an antigastrin mechanism was carried out in vivo in anaesthetized rats with the use of male animals weighing about 200 g. Gastric secretion was stimulated with pentagastrin and the method of K. S. Lai [Gut 5, (1964), 327-341] was used, slightly modified.
After tracheotomy, the oesophagus and duodenum were cannulated. Perfusion was carried out with a tepid solution (37° C.) of 0.25 mM NaOH which was passed through the stomach by means of a peristaltic pump at a constant flow rate of 1 ml/minute. After stabilization for 20 minutes, the stimulant, dissolved in a physiological solution, was perfused for 120 minutes at a dose of 30 mcg/kg/h in a volume of 0.95 ml/hour. After perfusion for 60 minutes (the basal simulation), the product under test was administered intravenously (I.V.) as a bolus and the perfusion of the stimulant was continued for a further 60 minutes. The acid secretion was recorded continuously as a function of time.
The activity of the product was evaluated as the percentage reduction in the secreted acidity after the administration of the product compared with the basal acidity measured during the first 60 minutes of collection in the presence of pentagastrin alone.

guinea-pig ureters = assay: Antispastic activity in vitro: spontaneous motility of guinea-pig ureters; conditions: Cavia porcellus, five minutes contact, 37° C.
Description: The isotonic contractions were detected by means of a force transducer and recorded. […] A given concentration of the product under test was then introduced into the bath and left in contact with the prepared specimen for five minutes, after which the ureter was washed until its own spontaneous activity was re-established.

CCK-B receptors = conditions: guinea-pig; cited from earlier work
[4] = force of the contractions, read-out: IC50 (force), inhibition of the spontaneous motility of guinea-pig ureters in vitro
[5] = frequency of the contractions, read-out: IC50 (frequency), inhibition of the spontaneous motility of guinea-pig ureters in vitro

- activity relative to its acidic parent compound CR 2194 (CCK-A binding) ([1]; rat pancreatic cells): about twice
- IC50 [2]: 700 nM
- times less active than pentagastrin (CCK-B binding) ([2]; guinea-pig cortical membranes): about 200 times
- times more potent than the CCK-A antagonist R-lorglumide (CCK-B binding) ([2]; guinea-pig cortical membranes): about 10 times
- times more potent than the gastrin antagonist CR 2194 (CCK-B binding) ([2]; guinea-pig cortical membranes): about 3 times
- IC50 (guinea-pig ureters; [4]): 23 µg/mL (≈ 43.9 µM)
- IC50 (guinea-pig ureters; [5]): 29 µg/mL (≈ 55.4 µM)
Compound: CN1CCN(C(=O)CC[C@@H](NC(=O)c2cc(Cl)cc(Cl)c2)C(=O)N2CCC3(CCCC3)CC2)CC1 [Compound 1]
- LIGHT TIME (%) TOTAL TIME (mouse; 0.01 mg/kg IP): 32.3%
- LIGHT TIME (%) TOTAL TIME: % EFF.VS CONTROL (mouse; 0.01 mg/kg IP): 17%
- LIGHT-DARK MOVEMENTS (mouse; 0.01 mg/kg IP): 13.2
- LIGHT-DARK MOVEMENTS: % EFF. VS CONTROL (mouse; 0.01 mg/kg IP): 3%
- MOV. DARK (%) TOTAL MOV. (mouse; 0.01 mg/kg IP): 50%
- MOV. DARK (%) TOTAL MOV.: % EFF. VS CONTROL (mouse; 0.01 mg/kg IP): 0%
- TOTAL MOV. (mouse; 0.01 mg/kg IP): 478
- LIGHT TIME (%) TOTAL TIME (mouse; 0.1 mg/kg IP): 35.4%
- LIGHT TIME (%) TOTAL TIME: % EFF.VS CONTROL (mouse; 0.1 mg/kg IP): 28%
- LIGHT-DARK MOVEMENTS (mouse; 0.1 mg/kg IP): 15.0
- LIGHT-DARK MOVEMENTS: % EFF. VS CONTROL (mouse; 0.1 mg/kg IP): 17%
- MOV. DARK (%) TOTAL MOV. (mouse; 0.1 mg/kg IP): 47%
- MOV. DARK (%) TOTAL MOV.: % EFF. VS CONTROL (mouse; 0.1 mg/kg IP): -5%
- TOTAL MOV. (mouse; 0.1 mg/kg IP): 461
- LIGHT TIME (%) TOTAL TIME (mouse; 1 mg/kg IP): 30.5%
- LIGHT TIME (%) TOTAL TIME: % EFF.VS CONTROL (mouse; 1 mg/kg IP): 10%
- LIGHT-DARK MOVEMENTS (mouse; 1 mg/kg IP): 12.9
- LIGHT-DARK MOVEMENTS: % EFF. VS CONTROL (mouse; 1 mg/kg IP): 0%
- MOV. DARK (%) TOTAL MOV. (mouse; 1 mg/kg IP): 45%
- MOV. DARK (%) TOTAL MOV.: % EFF. VS CONTROL (mouse; 1 mg/kg IP): -9%
- TOTAL MOV. (mouse; 1 mg/kg IP): 471
- anxiolytic activity in the Black and White Box test (in words) (mouse; IP): active for all the parameters tested
- dose at which the compound is most active (mouse; bell-shaped curve): 0.1 mg/kg (I.P.)
- ED50 ([3]; iv, anaesthetized rat, pentagastrin 30 mcg/kg/h, I.V. bolus, read-out: Antagonistic activity (ID50) towards acid secretion induced by pentagastrin): 9 mg/kg
- activity times higher than that of its S enantiomer, compound 2 ([3]; rat, pentagastrin-induced acid secretion): about three
- times more active than CR 2194, calculated on a molar basis ([3]; rat, pentagastrin-induced acid secretion, molar basis): about 1.5 times
- times more active than CR 2194 ([3]; rat, pentagastrin-induced acid secretion, weight basis): about 1.2 times

- IC50 ([1]; 30 minutes at 37° C., read-out: IC50, inhibition of the binding of (125-I)(B-H)-CCK-8 to the pancreatic cells of the rat): 2800 nM
- IC50 [2]: 2900 nM
- IC50 (guinea-pig ureters; [4]): 32 µg/mL (≈ 57.9 µM)
- IC50 (guinea-pig ureters; [5]): 100 µg/mL (≈ 181 µM)
Compound: CCCCCN(CCCCC)C(=O)[C@@H](CCC(=O)NCCN1CCOCC1)NC(=O)c1ccc2ccccc2c1 [Compound 61]

Compound: non-sulphated [3-H][N-methyl-N-leucine]CCK-8
- affinity for the receptors of the cortex (CCK-B), times greater than for those of the pancreas (CCK-A) (CCK-B receptors): about 4000 times
